TGI and GI50 data for ten compounds are collected here from PubChem BioAssay (NCI).

The structures appear in SMILES notation. Where “and” joins values, the source holds several entries; their conditions need not be identical. Identical values can stand only once.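 Cultured in 96-well plates, cells were exposed to test compound for 48 hours across five concentrations. At the GI50, growth is halved. TGI: total growth inhibition.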

Among the test systems are CAKI-1 renal; COLO 205 colon; EKVX NSCLC; MOLT-4 leukemia; NCI-H226 lung; NCI-H460 lung; RPMI-8226 leukemia; SF-268 CNS; SK-MEL-28 melanoma; UO-31 renal.
Common to all, as to experiment: NCI tumour cell line growth inhibition, 48 h

For the compound `C#CCC(N)(CO)C(=O)O` (centres undefined), the TGI in the assay with CAKI-1 renal, in the assay with COLO 205 colon, in the assay on EKVX NSCLC, in the assay with MOLT-4 leukemia, in the assay on NCI-H226 lung and in the assay with NCI-H460 lung was greater than 100 µM in each case. Also, the TGI in the assay on RPMI-8226 leukemia, with SF-268 CNS, in the assay with SK-MEL-28 melanoma and in the assay with UO-31 renal was greater than 100 µM throughout.
As to `CC(=O)OC1COC(n2c(=S)n(-c3ccccc3)c(=O)c3cc(Br)ccc32)C(OC(C)=O)C1OC(C)=O` (centres undefined), the TGI in the assay on CAKI-1 renal, with COLO 205 colon, in the assay with EKVX NSCLC, in the assay with MOLT-4 leukemia, in the assay on NCI-H226 lung and with NCI-H460 lung was greater than 100 µM throughout. Further, the TGI in the assay on RPMI-8226 leukemia, with SF-268 CNS, with SK-MEL-28 melanoma and in the assay on UO-31 renal was greater than 100 µM throughout.
As to `Cl[Si]1(Cl)Oc2ccccc2O[Si](Cl)(Cl)Oc2ccccc2O1`, the TGI is 97.5 µM in the assay on CAKI-1 renal; 59.7 µM with COLO 205 colon; greater than 100 µM in the assay on EKVX NSCLC; 42.8 µM in the assay with MOLT-4 leukemia; greater than 100 µM with NCI-H226 lung; 65.9 µM in the assay on NCI-H460 lung. The TGI in the assay with RPMI-8226 leukemia, with SF-268 CNS and in the assay with SK-MEL-28 melanoma was greater than 100 µM in each case.
With `CCN(CC)CCNC(=O)c1c(C)[nH]c(/C=C2\C(=O)Nc3ccc(F)cc32)c1C`, the GI50 in the assay on CAKI-1 renal was 1070 nM and 1040 nM and 794 nM; in the assay on COLO 205 colon, 3.57 µM and 2.98 µM and 3.39 µM; in the assay with EKVX NSCLC it was > 10 µM and 5.27 µM and 8.38 µM; with MOLT-4 leukemia, 1100 nM and 2730 nM and 1700 nM; with NCI-H226 lung, 5.22 µM and 5.72 µM and 8.46 µM; in the assay with NCI-H460 lung, 2000 nM and 2190 nM. The GI50 in the assay with RPMI-8226 leukemia was 2930 nM and 4580 nM and 1460 nM; in the assay with SF-268 CNS it was > 10 µM and 2.73 µM and 4.57 µM; with SK-MEL-28 melanoma, 2470 nM and 3000 nM and 1570 nM; with UO-31 renal it was 629 nM and 1260 nM and 1290 nM. The TGI was > 10 µM and 20 µM and 6.77 µM with CAKI-1 renal; > 10 µM and 5.84 µM and 8.8 µM with COLO 205 colon; > 10 µM and 20 µM and 21.9 µM with EKVX NSCLC; > 10 µM and 20 µM and 9.05 µM in the assay on MOLT-4 leukemia; > 10 µM and 20 µM and 23.4 µM in the assay with NCI-H226 lung; > 10 µM and 5.78 µM and 13.1 µM in the assay with NCI-H460 lung. Besides, the TGI was > 10 µM and 10.9 µM and 5.31 µM with RPMI-8226 leukemia; > 10 µM and 6.09 µM and 16.9 µM with SF-268 CNS; > 10 µM and 5.89 µM and 3.31 µM in the assay on SK-MEL-28 melanoma; > 10 µM and 4.59 µM and 8.07 µM in the assay with UO-31 renal.
With `COc1ccccc1-c1cc(=O)c2ccc(C)nc2[nH]1`, the TGI with CAKI-1 renal, with COLO 205 colon, in the assay with EKVX NSCLC, in the assay on MOLT-4 leukemia, in the assay on NCI-H226 lung and in the assay with NCI-H460 lung was greater than 100 µM throughout. In addition, the TGI in the assay on RPMI-8226 leukemia, with SF-268 CNS, with SK-MEL-28 melanoma and in the assay with UO-31 renal was greater than 100 µM throughout. Besides, the GI50 in the assay with NCI-H460 lung was 98700 nM.
On to `O=S(=O)(CCOCc1ccc(-c2ccc3ncnc(Nc4ccc(OCc5cccc(F)c5)c(Cl)c4)c3c2)o1)c1ccccc1`, for which the GI50 was 831 nM in the assay with CAKI-1 renal; greater than 25 µM with COLO 205 colon; 0.754 µM in the assay with EKVX NSCLC; greater than 25000 nM in the assay with MOLT-4 leukemia; greater than 25 µM in the assay on NCI-H226 lung; greater than 25000 nM in the assay on NCI-H460 lung. Further, the GI50 in the assay on RPMI-8226 leukemia is greater than 25000 nM; with SF-268 CNS it was greater than 25 µM; in the assay on SK-MEL-28 melanoma, greater than 25000 nM; in the assay with UO-31 renal, greater than 7540 nM. In addition, the TGI in the assay on CAKI-1 renal, in the assay with COLO 205 colon, in the assay with EKVX NSCLC, with MOLT-4 leukemia, in the assay with NCI-H226 lung and in the assay with NCI-H460 lung was greater than 25 µM in each case. Further, the TGI in the assay on RPMI-8226 leukemia, with SF-268 CNS, in the assay with SK-MEL-28 melanoma and in the assay on UO-31 renal was greater than 25 µM in each case.
For the compound `Cc1ccc(S(=O)(=O)N/N=C(\c2nc3ccc([N+](=O)[O-])cc3[nH]c2=O)C(O)c2ccccc2Cl)cc1` (centres undefined), the TGI in the assay with CAKI-1 renal, in the assay on COLO 205 colon, with EKVX NSCLC, in the assay on MOLT-4 leukemia, in the assay on NCI-H226 lung and with NCI-H460 lung was greater than 100 µM in each case. For the same compound, the TGI with RPMI-8226 leukemia, with SF-268 CNS, with SK-MEL-28 melanoma and in the assay with UO-31 renal was greater than 100 µM throughout.
`Cn1c([N+](=O)[O-])cnc1/C=C1\Oc2cc(Cl)ccc2C1=O`: the GI50 in the assay on CAKI-1 renal is 296 nM; with COLO 205 colon, 0.742 µM; in the assay on MOLT-4 leukemia, 212 nM; in the assay with NCI-H226 lung, 2.05 µM; with NCI-H460 lung, 297 nM; in the assay with RPMI-8226 leukemia, 1730 nM. Besides, the results for the GI50 in the assay with SF-268 CNS, with SK-MEL-28 melanoma and in the assay on UO-31 renal were 0.371 µM, 721 nM and 250 nM, respectively. The TGI was 1.18 µM with CAKI-1 renal; 3.59 µM with COLO 205 colon; 2.32 µM in the assay on MOLT-4 leukemia; 8.41 µM in the assay with NCI-H226 lung; 3.4 µM in the assay on NCI-H460 lung; greater than 20.5 µM in the assay with RPMI-8226 leukemia. Besides, the TGI with SF-268 CNS worked out at 2.85 µM; in the assay with SK-MEL-28 melanoma it was 3.82 µM; in the assay with UO-31 renal, 1.3 µM.
For the compound `O=C(O)CCC(NC(=S)S)C(=O)O.[Na+].[Zn+2]` (centres undefined), the GI50 is greater than 50000 nM in the assay with CAKI-1 renal; greater than 50 µM with COLO 205 colon; greater than 50000 nM in the assay with MOLT-4 leukemia; greater than 50 µM with NCI-H226 lung; greater than 50000 nM with NCI-H460 lung; greater than 50000 nM in the assay on RPMI-8226 leukemia. Also, the GI50 in the assay with SF-268 CNS is greater than 50 µM; in the assay with SK-MEL-28 melanoma, greater than 50000 nM; in the assay on UO-31 renal, greater than 50000 nM. Moreover, the TGI in the assay with CAKI-1 renal, in the assay with COLO 205 colon, with MOLT-4 leukemia, in the assay with NCI-H226 lung, with NCI-H460 lung and in the assay on RPMI-8226 leukemia was greater than 50 µM each time. Moreover, the TGI in the assay with SF-268 CNS, in the assay with SK-MEL-28 melanoma and in the assay on UO-31 renal was greater than 50 µM throughout.
As for `Cn1c(/C(C#N)=C/c2ccc3ccccc3c2)cc2ccccc21`, the GI50 in the assay on CAKI-1 renal was 60.5 nM; with COLO 205 colon it was 0.309 µM; in the assay with EKVX NSCLC, 0.471 µM; in the assay with MOLT-4 leukemia, 468 nM; in the assay with NCI-H226 lung it was 0.662 µM; in the assay on NCI-H460 lung it was 201 nM. The GI50 in the assay with RPMI-8226 leukemia is 311 nM; with SK-MEL-28 melanoma it was 16600 nM; with UO-31 renal, 157 nM. Also, the TGI in the assay with CAKI-1 renal was greater than 100 µM; in the assay with COLO 205 colon, greater than 26.1 µM; in the assay with EKVX NSCLC it was greater than 100 µM; with MOLT-4 leukemia, greater than 100 µM; with NCI-H226 lung it was greater than 100 µM; with NCI-H460 lung it was greater than 100 µM. The TGI with RPMI-8226 leukemia, in the assay on SK-MEL-28 melanoma and in the assay with UO-31 renal was greater than 100 µM throughout.
